Seven compounds from PubChem BioAssay (NCI) can be followed below.

Where “and” joins values, the source holds several entries; their conditions need not be identical. Equal values may be shown once.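 Interpolation was linear, between the two tested concentrations surrounding the appropriate level; five concentrations were tested over 48 hours in 96-well plates. GI50 is the concentration that inhibits growth by half. TGI denotes the concentration required for complete inhibition of growth.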 Where only a bound is given, the exact number is not on record here.

Test in all cases: DTP human tumour cell line panel, 48 h
In test [1] the test system is UO-31 renal.
The subject of test [2] is SK-MEL-2 melanoma.
For test [3], the system named is PC-3 prostate.
The subject of test [4] is A549 NSCLC.
The test system of test [5] is CAKI-1 renal.
The subject of test [6] is NCI/ADR-RES ovarian.
The subject of test [7] is HCT-116 colon.
For test [8], the system named is HS 578T breast.
For test [9], the system named is MOLT-4 leukemia.
Test [10] relates to CCRF-CEM leukemia.

Turning to `COc1c(O)c2c3c(c1OC)-c1ccccc1CC3N(S(=O)(=O)c1ccc(C)cc1)CC2` (stereo not drawn), the GI50 in [1] was 2.02 µM; in test [2], 1.47 µM; in test [3], 1.65 µM; in test [4], 2 µM; in test [5], 2.12 µM; in test [6], 1.49 µM. The GI50 was 1.9 µM in test [7], 1.2 µM in test [8], 2.14 µM in [9] and 1.34 µM in test [10]. For the same compound, the concentration for total growth inhibition (TGI) in test [1] is > 50 µM; in test [2], 3.88 µM; in test [3], > 50 µM; in test [4], > 50 µM; in test [5] it was > 50 µM; in [6] it was 4.54 µM. In addition, the TGI was > 50 µM in [7], 4.03 µM in test [8], 10.9 µM in test [9] and 4.94 µM in [10].
Consider `O=C1CCS/C(=N/S(=O)(=O)c2ccc(N3N=C4c5ccccc5CC4C3c3cccs3)cc2)N1Cc1ccccc1` (stereo not drawn), for which the GI50 was 28.3 µM in test [1]; 28 µM in test [2]; 22.4 µM in test [3]; 14.4 µM in [4]; 24 µM in test [5]; 20.8 µM in test [6]. Besides, the GI50 in test [7] was 20.3 µM; in test [8], 23.5 µM; in [9], 47 µM; in test [10] it was 28 µM. Besides, the TGI in test [1] was > 100 µM; in [2], > 100 µM; in test [3], 55.2 µM; in test [4] it was 35.8 µM; in [5] it was 54.3 µM; in test [6] it was 40.1 µM. The total growth inhibition concentration (TGI) in [7] is 34.5 µM; in test [8] it was 67.2 µM; in test [9], > 100 µM; in test [10] it was 75.7 µM.
As to `Cc1ccnc(Nc2ccc([N+](=O)[O-])c(NCCN3CCOCC3)n2)c1`, the GI50 was 0.0461 µM in test [1]; 0.00566 µM and 0.0304 µM in [2]; 0.00603 µM in [3]; 0.0141 µM in [4]; 0.0052 µM in test [5]; 0.00429 µM in [6]. Moreover, the GI50 in test [7] was 0.00663 µM; in [8], 0.0277 µM; in [9], 0.0304 µM and 0.0356 µM; in [10], 0.0182 µM and 0.0265 µM. The TGI in test [1] is 30.7 µM; in [2], 27.2 µM; in test [3] it was 39.5 µM; in test [4], > 100 µM; in test [5], > 100 µM; in test [8] it was 22.7 µM. Besides, the concentration for total growth inhibition (TGI) in [9] was > 100 µM; in test [10], 20.6 µM.
For `CN(C)c1ccc(C2CC(C)(O)Oc3cc4c(cc32)OCO4)cc1` (stereo not drawn), the TGI in test [1] was 93.1 µM; in test [2], 63.8 µM; in test [3], > 100 µM; in [4], > 100 µM; in [5], > 100 µM; in test [6] it was > 100 µM. The TGI in test [7], in [8], in test [9] and in test [10] was > 100 µM in each case.
Regarding `COC(=O)c1ccc2[nH]c(O)c(C(=Nc3ccc(N(C)C(=O)CN4CCN(C)CC4)cc3)c3ccccc3)c2c1`, the GI50 in test [1] is 1.24 µM; in test [2] it was 1.17 µM; in test [3], 1.04 µM; in test [4], 1.46 µM; in test [5], 0.21 µM; in test [6], 9.36 µM. The GI50 in [7] is 0.343 µM; in test [8] it was 0.266 µM; in test [9] it was 0.389 µM; in test [10], 0.666 µM. The TGI is 3.86 µM in test [1]; 3.54 µM in test [2]; 25.5 µM in test [3]; 5.31 µM in test [4]; 1.25 µM in [5]; 36.4 µM in test [6]. The TGI was 3.06 µM in [7], 4.57 µM in [8], 4.56 µM in test [9] and > 100 µM in test [10].
Take `Fc1ccc(-c2nn3c(COc4ccc(Cl)cc4)nnc3s2)cc1Oc1ccccc1`: the GI50 in [1] was 24.4 µM; in test [2], 38.6 µM; in test [3], 0.0735 µM; in [4] it was 21.9 µM; in test [5], 34.9 µM; in test [6], 30.5 µM. Further, the GI50 in test [7] is 20.6 µM; in [8] it was 22.4 µM; in [9] it was 3.51 µM; in test [10] it was 22.4 µM. For the same compound, the TGI in [1] is > 100 µM; in test [2], > 100 µM; in [3], 13.6 µM; in [4] it was > 100 µM; in test [5], > 100 µM; in test [6], 95.5 µM. In addition, the TGI in test [7] is > 52.3 µM; in [8] it was 61.4 µM; in test [9], 17.7 µM; in test [10] it was 74.4 µM.
For the compound `CC1=C2[C@@H](CC1)[C@]1(C)O[C@@](C3CC3)(C[C@H]1OC(=O)CO)[C@H]2OC(=O)/C=C/c1ccccc1`, the GI50 in test [1] was 0.636 µM; in test [2], 18.1 µM; in test [3] it was 13 µM; in [4], 13.2 µM; in test [5], 10.9 µM; in test [6] it was 0.103 µM. Further, the GI50 in [7] was 16 µM; in [8], < 0.0153 µM; in test [9] it was 15.1 µM; in test [10], 17.4 µM. The TGI in test [1] came out at 20.8 µM; in test [2], 36.1 µM; in test [3], 28.4 µM; in [4], 27.3 µM; in test [5], 24 µM; in [6] it was 14.1 µM. The TGI in [7] was 30.9 µM; in test [8] it was 0.845 µM; in [9], 36.9 µM; in test [10], 39.7 µM.
